From patent US7528252B2, “Derivatives of triazoly-imidazopyridine useful as ligands of the adenosine A2a receptor and their use as medicaments” (Sigma-Tau Industrie Farmaceutiche Riunite S.p.A., priority 2002, dated 2009)

Assays:
human A2b receptor = biological target: T1, human A2b receptor (Homo sapiens, UniProt P29275); test: Affinity towards the adenosine A2b receptor ([3H]-DPCPX binding, HEK 293 membranes); details: read-out: A2b Ki (nM) ± sd
T1 construct: expressed in transfected cells; host or cells: HEK 293
T1 sequence (P29275 1-332): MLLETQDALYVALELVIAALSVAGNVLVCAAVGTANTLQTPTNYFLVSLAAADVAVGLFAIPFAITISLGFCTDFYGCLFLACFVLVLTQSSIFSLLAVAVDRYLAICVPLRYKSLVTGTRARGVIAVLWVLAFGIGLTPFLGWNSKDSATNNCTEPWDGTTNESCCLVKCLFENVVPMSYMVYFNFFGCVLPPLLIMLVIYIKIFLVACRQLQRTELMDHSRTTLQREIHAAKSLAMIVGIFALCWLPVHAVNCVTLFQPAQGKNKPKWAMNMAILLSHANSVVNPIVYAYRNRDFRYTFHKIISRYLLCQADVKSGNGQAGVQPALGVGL
Protocol: The interactive capacity of each product towards the adenosine A2b receptor was evaluated using membranes from HEK 293 cells stably expressing the human A2b receptor subtype exclusively.
Non-specific binding was measured in the presence of NECA (50 μM).
In binding studies for each compound, eight different concentrations (from 10^−5 M to 10^−12 M) were evaluated in order to obtain competition curves. By means of non-linear regression analysis of the competition curves, the IC50 values, which express the binding affinity of each product, were determined. Using the Cheng Prusoff equation (Ki=IC50/1+(L/Kd)) Ki values were calculated through which the affinity of each product studied, for the receptor investigated, is expressed.

NMDA = test: Receptor binding study, NMDA; details: reference compound
CD1 male mice [1] = test: Effects on spontaneous motor activity in mice; type: in vivo; details: for Horizontal activity / Total distance / Vertical activity: mean ± s.e.
Protocol: For this study, type CD1 male mice (n=8) were used. The effects of the products under study and of the reference compounds were evaluated using an apparatus consisting of a Plexiglas cage (40 cm×40 cm) surrounded by a series of photocells which monitor the movements of the animals placed inside, connected a computerised system, through which, the signals are collected and later elaborated.
Tests were carried out, after endoperitoneal administration of the products. 15 minutes after treatment, the treated animals, alternating with the controls, were placed inside the cage so as to record their spontaneous movements over a total period of 45 minutes broken down into two observation intervals (15′-45′ and 45′-60′, with respect to the time after treatment).
To examine the possible effects of the compounds studied on motor activity, the following parameters were considered: horizontal activity, vertical activity: total distance.
Except for CGS 21680 (reference compound, described in EP 0 277 917, Ciba-Geigy) which was dissolved in 0.9% NaCl, the products studied were solubilised in DMSO and then diluted in Cremofor EL and 0.9% NaCl (final concentrations: DMSO 15%, Cremofor EL 15%, NaCl 0.9%.

M5 = biological target: T2, M5 (Homo sapiens, UniProt P08912); test: Receptor binding study, M5; details: reference compound
T2 sequence (P08912 1-532): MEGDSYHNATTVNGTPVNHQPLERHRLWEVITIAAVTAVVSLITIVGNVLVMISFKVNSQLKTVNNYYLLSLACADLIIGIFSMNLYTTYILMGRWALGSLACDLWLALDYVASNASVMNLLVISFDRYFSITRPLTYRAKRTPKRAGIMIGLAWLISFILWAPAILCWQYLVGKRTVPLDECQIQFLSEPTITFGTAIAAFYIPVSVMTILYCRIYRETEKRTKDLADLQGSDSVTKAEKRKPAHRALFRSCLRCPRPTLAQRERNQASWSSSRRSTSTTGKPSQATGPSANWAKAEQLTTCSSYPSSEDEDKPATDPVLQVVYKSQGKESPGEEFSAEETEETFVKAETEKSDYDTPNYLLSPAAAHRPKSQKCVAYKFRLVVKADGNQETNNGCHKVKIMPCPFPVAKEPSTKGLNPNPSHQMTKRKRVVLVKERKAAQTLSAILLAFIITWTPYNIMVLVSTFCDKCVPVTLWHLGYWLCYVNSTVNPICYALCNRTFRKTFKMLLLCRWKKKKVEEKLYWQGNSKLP

Cholinetransporter = biological target: T3, Cholinetransporter (Homo sapiens, UniProt Q9GZV3); test: Receptor binding study, Choline transporter; details: reference compound
T3 sequence (Q9GZV3 1-580): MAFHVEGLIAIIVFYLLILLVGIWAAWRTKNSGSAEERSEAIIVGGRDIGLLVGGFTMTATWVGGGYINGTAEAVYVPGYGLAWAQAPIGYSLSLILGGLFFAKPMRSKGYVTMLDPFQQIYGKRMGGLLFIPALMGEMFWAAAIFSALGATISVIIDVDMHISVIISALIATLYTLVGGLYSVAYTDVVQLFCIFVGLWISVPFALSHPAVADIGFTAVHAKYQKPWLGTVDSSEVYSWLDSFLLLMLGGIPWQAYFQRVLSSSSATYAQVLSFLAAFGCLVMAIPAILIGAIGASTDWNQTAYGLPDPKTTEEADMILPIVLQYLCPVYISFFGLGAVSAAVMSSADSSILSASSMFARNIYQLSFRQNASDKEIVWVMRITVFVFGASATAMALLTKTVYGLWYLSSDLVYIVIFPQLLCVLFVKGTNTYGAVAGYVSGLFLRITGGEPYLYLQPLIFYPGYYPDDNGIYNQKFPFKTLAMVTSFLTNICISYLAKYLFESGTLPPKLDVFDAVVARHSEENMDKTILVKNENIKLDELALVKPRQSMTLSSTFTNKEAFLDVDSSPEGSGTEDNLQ

PCP = test: Receptor binding study, PCP; details: reference compound
ADOtransporter = test: Receptor binding study, ADO transporter; details: reference compound
human A2a receptor = human A2a receptor (Homo sapiens, UniProt P29274); details: for KiA1/KiA2a: ratio of receptor affinity (selectivity); for Ki: read-out: A2a Ki (nM) ± sd, human A2a, HEK 293 membranes, [3H]-CGS21680
[2] = biological target: T4, human A1 subtype adenosine receptor (Homo sapiens, UniProt P30542); test: Affinity towards the adenosine A1 receptor ([3H]-DPCPX binding, CHO-K1 membranes); details: read-out: A1 Ki (nM) ± sd
T4 construct: expressed in transfected cells; host or cells: CHO-K1
T4 sequence (P30542 1-326): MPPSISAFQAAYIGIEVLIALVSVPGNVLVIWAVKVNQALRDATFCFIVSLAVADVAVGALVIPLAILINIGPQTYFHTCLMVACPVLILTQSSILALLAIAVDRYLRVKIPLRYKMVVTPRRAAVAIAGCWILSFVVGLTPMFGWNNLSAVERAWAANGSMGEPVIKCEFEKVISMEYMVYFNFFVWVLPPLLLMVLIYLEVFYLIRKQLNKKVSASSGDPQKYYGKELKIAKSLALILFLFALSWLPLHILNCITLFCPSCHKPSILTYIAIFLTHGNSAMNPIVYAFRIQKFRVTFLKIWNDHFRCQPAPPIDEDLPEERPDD

CD1 male mice [3] = test: Capacity of the products to induce catalepsy in mice; type: in vivo; details: endoperitoneal, 30 minutes prior to the test
Protocol: 10 CD1 male mice were used per group. For this test, a steel bar, 10 cm long, was placed at a height of 4.5 cm above the support surface. Onto this, were placed the front legs of the animals. The presence of catalepsy was determined by measuring the time (in seconds) the animal remained in the posture placed. Later, this parameter was placed relatively, on a scale of rising values (0 to 5) through which, the degree of catalepsy determined in both control animals and in these subjected to treatment with the substances under test could be proportionately expressed.
The reference products and these in this study were administered endoperitoneally, in a volume of 10 ml/kg, 30 minutes prior to the test.
Except for CGS 21680 (reference compound) which was dissolved in 0.9% NaCl, the products in the study and the control antagonist ZM 241385 were solubilised in DMSO and then diluted in Cremofor EL and 0.9% NaCl (final concentrations: DMSO 15%, Cremofor EL 15%, NaCl 0.9%).

P2Y = test: Receptor binding study, P2Y; details: reference compound
mice = test: Forced swim test in mice; type: in vivo; details: 60 minutes before the test; 4 minutes of testing period
Protocol: Mice were dropped individually into glass cylinders (height: 25 cm, internal diameter 10 cm) containing 10 cm water, maintained at 23° C. The immobility time (sec) was measured during 4 minutes of test. A mouse was judged to be immobile when it remained floating in the water, making only the necessary movements to keep its head above water. Test compound ST 1535 was administered orally to mice, 60 minutes before the test.

GABAa = test: Receptor binding study, GABAa; details: reference compound
P2X = test: Receptor binding study, P2X; details: reference compound
[4] = 0.5 mg/kg endoperitoneal, interval 15′-45′ from treatment
[5] = 0.5 mg/kg endoperitoneal, interval 45′-60′ from treatment
[6] = 2.5 mg/kg endoperitoneal, interval 15′-45′ from treatment
[7] = 2.5 mg/kg endoperitoneal, interval 45′-60′ from treatment
[8] = 5 mg/kg endoperitoneal, interval 15′-45′ from treatment
[9] = 5 mg/kg endoperitoneal, interval 45′-60′ from treatment
[10] = 10 mg/kg endoperitoneal, interval 15′-45′ from treatment
[11] = 10 mg/kg endoperitoneal, interval 45′-60′ from treatment

human A2a receptor, sequence (P29274 whole entry): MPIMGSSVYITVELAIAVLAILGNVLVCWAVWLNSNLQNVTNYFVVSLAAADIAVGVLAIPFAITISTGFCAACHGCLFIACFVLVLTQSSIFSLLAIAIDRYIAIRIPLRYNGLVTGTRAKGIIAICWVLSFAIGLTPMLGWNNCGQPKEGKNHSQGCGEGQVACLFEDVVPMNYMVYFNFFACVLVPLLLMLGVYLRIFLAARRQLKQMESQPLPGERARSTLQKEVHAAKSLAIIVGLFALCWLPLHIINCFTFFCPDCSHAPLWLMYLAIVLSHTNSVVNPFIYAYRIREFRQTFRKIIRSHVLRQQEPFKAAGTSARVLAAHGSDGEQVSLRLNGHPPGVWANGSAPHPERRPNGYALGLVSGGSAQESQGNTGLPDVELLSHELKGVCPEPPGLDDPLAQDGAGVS

## O=c1nc2[nH]c3ccccc3nc-2c(=O)[nH]1 [Alloxazine, reference compound]
Human A2b receptor
  Ki: 3.8 ± 2.1 nM

## O=C(O)[C@@H]1C[C@H](CP(=O)(O)O)CCN1 [CGS 19755, reference compound]
NMDA
  IC50: 967 nM

## CCNC(=O)[C@H]1O[C@@H](n2cnc3c(N)nc(NCCc4ccc(CCC(=O)O)cc4)nc32)[C@H](O)[C@@H]1O [CGS 21680, reference compound]
CD1 male mice [1]; [4]
  Horizontal activity: 1608 ± 328
  Total distance: 504 ± 106
  Vertical activity: 27 ± 11
CD1 male mice [1]; [5]
  Horizontal activity: 471 ± 254
  Total distance: 121 ± 73
  Vertical activity: 10 ± 1

## C[N+]1(C)CCC(OC(=O)C(c2ccccc2)c2ccccc2)CC1 [Compound 4-DAMP, reference compound]
M5
  IC50: 2 nM

## C[N+]1(C)CCOC(O)(c2ccc(-c3ccc(C4(O)C[N+](C)(C)CCO4)cc3)cc2)C1 (centres unmarked) [Hemicholinium-3, reference compound]
Cholinetransporter
  IC50: 12 nM

## C[C@]12N[C@H](Cc3ccccc31)c1ccccc12 [MK-801, reference compound]
PCP
  IC50: 2 nM

## O=[N+]([O-])c1ccc(CSc2ncnc3c2ncn3[C@@H]2O[C@H](CO)[C@@H](O)[C@H]2O)cc1 [NBTI, reference compound]
ADOtransporter
  IC50: 0.3 nM

## Cn1c(-n2nccn2)nc2c(N)ncnc21 [ST 1490, 6-amino-9-methyl-8-(triazol-2-yl)-9(H)-purine]
Human A2a receptor
  KiA1/KiA2a: 0.009
  Ki: 46 nM
[2]
  Ki: 0.43 nM

## Cc1nc(N)c2nc(-n3nccn3)n(C)c2n1 [ST 1491, 6-amino-2,9-dimethyl-8-(triazol-2-yl)-9(H)-purine]
Human A2a receptor
  KiA1/KiA2a: 0.15
  Ki: 70 ± 15 nM
[2]
  Ki: 10 ± 1.4 nM

## Cn1c(-n2nccn2)nc2c(N)nc(CCc3ccccc3)nc21 [ST 1537, 9-methyl-2-(2-phenylethyl)-8-(2H-1,2,3-triazol-2-yl)-9H-purine-6-ylamine]
CD1 male mice [1]; [6]
  Horizontal activity: 7494 ± 565
  Total distance: 1676 ± 204
  Vertical activity: 590 ± 78
CD1 male mice [1]; [7]
  Horizontal activity: 3133 ± 250
  Total distance: 677 ± 105
  Vertical activity: 210 ± 17
CD1 male mice [1]; [8]
  Horizontal activity: 7203 ± 264
  Total distance: 1503 ± 116
  Vertical activity: 498 ± 77
CD1 male mice [1]; [9]
  Horizontal activity: 2844 ± 299
  Total distance: 532 ± 95
  Vertical activity: 363 ± 91
CD1 male mice [1]; [10]
  Horizontal activity: 8242 ± 847
  Total distance: 2707 ± 950
  Vertical activity: 528 ± 126
CD1 male mice [1]; [11]
  Horizontal activity: 3874 ± 295
  Total distance: 843 ± 149
  Vertical activity: 276 ± 57
CD1 male mice [1]; independently of the dosage administered (2.5-10 mg/kg)
  effect on motor activity in mice (in words): induces a clear increase in motor activity
[2]
  Ki: 80 ± 13 nM
Human A2b receptor
  Ki: 2330 ± 588 nM
CD1 male mice [3]
  appearance of catalepsy in mice (FIG. 1): none of them brought about the appearance of catalepsy in mice

## Nc1ncnc2c1ncn2[C@H]1C[C@H](O)[C@@H](COP(O)(=S)OP(=O)(O)OP(=O)(O)O)O1 (some centres unmarked) [dATPα S, reference compound]
P2Y
  IC50: 22 nM

## CN(C)CCCN1c2ccccc2CCc2ccccc21 [imipramine, reference compound]
mice
  time of immobility, forced swim test (FIG. 5): in a manner similar to that observed for the antidepressive drug Imipramine

## NCc1cc(=O)[nH]o1 [muscimol, reference compound]
GABAa
  IC50: 16 nM

## Nc1ncnc2c1ncn2[C@@H]1O[C@H](COP(=O)(O)CP(=O)(O)OP(=O)(O)O)[C@@H](O)[C@H]1O [α,β-MeATP, reference compound]
P2X
  IC50: 14 nM
